{"source": "patent US6056950A", "about": "“Ophthalmic solutions viscosified with tamarind seed polysaccharide” (Farmigea S.p.A., priority 1996, dated 2000)", "assay": "Residence time / pharmacokinetics of pilocarpine in the tear fluid", "parameters": "species or system male New Zealand albino rabbits", "conditions": "rabbit, in vivo", "excerpt": "Specifically, all of the ophthalmic preparations employed in the tests shown herein contain 2.0% by weight of pilocarpine nitrate (PiNO3), but the control preparation referred to in the following table as RS (i.e. reference solution) is an aqueous solution without any thickening agent, while the preparation according to the invention, referred to below as \"TSP\", is formulated according to Example 2.1.\nAll of the tests described herein have been carried out on male New Zealand albino rabbits weighing 3-3.5 kg, non anesthesized and kept in standard stabling conditions, at a temperature of 18-20° C. Both the miotic effect and the residence time of the drug in the tear fluid were measured after instillation (at the time=0) of 25 μl of the preparation under study in the lower conjunctival sac of one eye of the rabbits, while the other eye served as a control.\nIn order to verify whether the product according to the invention was able to prolong, in comparison with other vehicles, the residence of the drug in the precorneal area, the following test was carried out: after instillation of one of the preparations under test, samples of tear fluid (1 μl) were collected, at suitable time intervals, from the rim portion of the lower conjunctival sac, using a microcapillary and avoiding any contact with the corneal epithelium. The tear fluid samples, transferred into microprobes, were diluted with water and analysed by HPLC.\nThe results of said test are reported, in terms of pilocarpine concentration (μg/μl) detected in the tear fluid as a function of time, in Table 9 and in the corresponding FIG. 7.\nThe differences in the performance of the various vehicles are better evidenced by the following table, reporting the pharmacokinetic parameters of pilocarpine in the tear fluid, in the various formulations, as calculated from the tests described above. The said parameters are as follows:\nKe : apparent clearance velocity constant\nAUCrel : AUC relative to the reference solution\nt1/2 : half-life time of the drug in the tear fluid\nMRT: mean residence time of the drug in the tear fluid.", "data": [{"substance": "HPMC", "values": [{"measurement": "AUC t3min→∞", "value": 23.13, "unit": "µg·min/µL"}, {"measurement": "AUCrel, AUC relative to the reference solution", "value": 6.27}, {"measurement": "Ke, apparent clearance velocity constant", "value": 0.098, "unit": "min⁻¹"}, {"measurement": "MRT, mean residence time", "value": 8.83, "unit": "min"}, {"measurement": "increase in half-life with respect to the reference solution", "value": "almost of double"}, {"measurement": "pilocarpine concentration in the tear fluid", "setting": "3 min", "value": 3.894, "unit": "µg/µL"}, {"measurement": "pilocarpine concentration in the tear fluid", "setting": "5 min", "value": 1.9, "unit": "µg/µL"}, {"measurement": "pilocarpine concentration in the tear fluid", "setting": "10 min", "value": 1.03, "unit": "µg/µL"}, {"measurement": "pilocarpine concentration in the tear fluid", "setting": "15 min", "value": 0.583, "unit": "µg/µL"}, {"measurement": "pilocarpine concentration in the tear fluid", "setting": "30 min", "value": 0.074, "unit": "µg/µL"}, {"measurement": "pilocarpine concentration in the tear fluid", "setting": "45 min", "value": 0.025, "unit": "µg/µL"}, {"measurement": "pilocarpine concentration in the tear fluid", "setting": "60 min", "value": 0.016, "unit": "µg/µL"}]}]}
